In US20150218252A1, “SELF-ASSEMBLING PEPTIDES, PEPTIDE NANOSTRUCTURES AND USES THEREOF” (President and Fellows of Harvard College, priority 2012, published 2015):
Blank lines part the entries; values can stand above or below the molecule they belong to. Residues, ends and D or L forms follow the SMILES beside them.

Assays:
[1] = Stability of self-assembled peptide nanoparticles determined by DLS; assay type: physicochemical; conditions: for particle stability / time particles stable before disaggregation: DLS; for particle stability compared to FF and YF constructs: function of residue at X4, data not shown; for time particles stable before disaggregation: formed in cold deionized water
Procedure: (§1) The self-assembled peptide nanoparticles formed (e.g., from FF or YF peptides) in cold water (cold deionized water) as shown in Example 2 were stable for about 2 hours before they eventually disaggregated as determined by DLS. To increase the stability of FF and YF, a solvent injection protocol was used. That is, the peptide constructs were dissolved in an organic solvent (e.g., but not limited to, DMSO, acetone, ethanol, dioxane, acetonitrile, methanol, and THF) at ˜150 mg/ml and a fixed volume was then injected in cold saline solution (e.g., but not limited to, ˜0.9% NaCl) while stirring. Different concentrations and/or types of salts could be used to prepare the saline solution, depending on the solubility of the peptide constructs in the respective solution. In some embodiments, any buffer solution such as PBS, acetate, succinate and citrate buffer could be used instead. The resulting particles size varied with peptide concentration from about 5 mg/ml to about 50 mg/ml with low polydispersities (FIGS. 4A-4B). By addition of 0.9% NaCl in the cold solution, the stability of the particles was increased from about 2 h to about 24 h as determined by DLS. […] Thus, in one embodiment, the average size of the nanoparticles can be controlled by simply varying the temperature of the formulation buffere, e.g., at room temperature or under cold ˜2-4° C. conditions.
In some embodiments, the nanoparticles can be formed by a process, which comprises dissolving an isolated peptide described herein (e.g., example peptides shown in Tables 1-2) in organic solvents such as DMSO at high concentration (e.g., about 400 mg/mL) and injecting a fixed volume of the dissolved peptides in cold saline (e.g., ˜0.9% sodium chloride solution) while stirring. The cold precipitation method (e.g., using a cold saline medium) can more efficiently induce peptide self-assembly. In some embodiments, the cold precipitation method (e.g., using a cold saline medium) can improve particle stability, e.g., from about 2 hours (e.g., when particles were formed by simply mixing the isolated peptides at a specified temperature) to about 24 hours (where the particles were formed by cold saline precipitation method described herein).
To further improve stability of nanoparticles, stability of the resulting particles was investigated as a function of amino acid residue at the X4 position as indicated in Table 1 (entry 3-7) and X4 position as indicated in FIG. 1. […] For example, as shown in FIG. 4E and FIG. 5, the particles self-assembled from the YF peptides or Y peptides can be stable for at least about 120 hours or longer when formed in the formulation buffer (e.g., ˜0.9% NaCl), e.g., using the cold precipitation method described earlier. Without wishing to be bound by theory, this increase in stability is likely, in part, due to the tyrosine residue at position X4 that can be stabilized by the free amine at the N-terminus.

[2] = Cell viability (CellTiter-Blue) of cells cultured with peptides / peptide nanoparticles; assay type: cell-based; conditions: mouse, murine breast cancer cells (4T1 and M6 cells); after at least about 24 hours or longer in culture; data not shown; read-out: viable cells
Procedure: The viability of cells incubated with various concentrations of peptide constructs and/or resulting peptide nanoparticles were evaluated.
To assess effects of the peptides and/or peptide nanostructures described herein on cell viability, cells were grown to confluence in gelatin 96-well plates, following which they were either left untreated or treated with blank or one or more embodiments of the peptide nanoparticles (˜25 mg/ml) for about 18 hours. CellTiter-Blue® reagent was then added to each well and, following 4 hour incubation at ˜37° C., the fluorescence signal was measured using a fluorescence multiwell plate reader (Victor3™, PerkinElmer, Mass., USA). All fluorescent intensity measurements were then normalized with respect to the untreated 4T1 mouse mammary carcinoma cells.

[3] = Encapsulation of hydrophobic (Nile Red) and hydrophilic (Calcein) dyes in peptide nanoparticles; assay type: physicochemical; conditions: YF ~25 mg/mL in cold saline
Procedure: Nile Red (NR) a hydrophobic dye and Calcein, hydrophilic dyes were used as model agents for hydrophobic and hydrophilic drugs or molecules, respectively. For example, YF was dissolved in DMSO to make a stock concentration of about 380 mg/mL. Stock solutions of Nile red and Calcein dyes were each prepared in DMSO at about 3 mg/ml and about 20 mg/mL, respectively. A mixture of YF (about 380 mg/ml) and at least one model agent (e.g., Nile red (0.28 mg/mL) and/or Calcein (1.8 mg/mL)) was added to a formulation buffer, e.g., cold saline (e.g., about 0.3 mL) and mixed, e.g., by manual pipetting. The final ratios of peptide to dyes were ˜25 mg/ml to ˜0.02 mg/ml (YF:NR) and ˜25 mg/mL to ˜0.124 mg/mL (YF:calcein). In some embodiments, about 20-30% of each dye was encapsulated within self-assembling YF nanoparticles.
The peptide nanostructures (e.g., peptide nanoparticles (NP)) were visualized by fluorescence microscopy using the hydrophobic dye, Nile Red, which has a strong emission at […] when present in a lipid-rich environment and excited at ˜485 nm, or the hydrophilic dyes, calcein (excitation/emission 495 nm/515 nm) and FITC-Dextran (excitation/emission 495 nm/521 nm). […] An aliquot of ˜10 μL solution was then added to a glass cover slip for visualization using fluorescence microscopy (TIRF DM1600).

[4] = Biodistribution of Alexa 750-loaded nanoparticles after tail vein injection; assay type: in vivo; conditions: mice
Procedure: FIG. 11 is a line graph showing biodistribution of YF nanoparticles in mice within 2 hours after injection. An imaging dye (e.g., Alexa 750 dye) was encapsulated in the YF nanoparticles and administered to the mice by tail vein injection.
Chemical and physical properties of the resulting nanoparticles, including size, surface charge, and surface chemistry, are important factors that determine their pharmacodynamics and biodistribution, which define their efficacy to deliver an agent and toxicity. Accordingly, it was next sought to determine tissue distribution of these resulting nanoparticles. Specifically, Alexa 750 dye was encapsulated in YF nanoparticles and administered to mice by tail vein injection. At intervals of 0.5, 1.0, and 2.0 hours, the animals were euthanized, then dissected. […] These nanoparticles can potentially eliminate the need for expensive spraying approach in aerosol delivery.

[5] = Dynamic light scattering (DLS) size distribution of self-assembled peptide nanoparticles; assay type: physicochemical; conditions: for average hydrodynamic diameter / polydispersity index (PDI): DLS
Text: Self-assembling peptides (e.g., FF and YF peptides as shown in Table 1 and FIG. 1, each with a sequence of 10 amino acids in length) were each prepared by FMOC solid-phase peptide synthesis, for example, on Wang resin and cleaved from the resin with a solution mixture of trifluoroacetic acid/triisopropylsilane/water in a volume ratio of […]. The synthesized peptides were then purified by reversed phase HPLC. These peptide constructs were selected to represent bulky aliphatic and aromatic amino acid residues. […] The peptide concentration of the resulting mixture was about 2.5 mg/mL to about 100 mg/mL. The mixture was stirred at about 200 rpm to about 300 rpm for about 5 mins. The stirring speed can be varied to control size homogeneity. […] Accordingly, the size of the nanostructures can be, at least in part, controlled by the sequence of the amino acid construct.
as §1, with “That is, the peptide constructs were dissolved in an organic solvent (e.g., but not limited to, DMSO, acetone, ethanol, dioxane, acetonitrile, methanol, and THF) at ˜150 mg/ml and a fixed volume was then injected in cold saline solution (e.g., but not limited to, ˜0.9% NaCl) while stirring.” left out
Each peptide was dissolved in distilled deionized water at varying concentrations, which can, in part, control particle size. Mixtures of ˜80 mg/mL, ˜50 mg/mL, and ˜20 mg/mL peptide concentration were each stirred vigorously (e.g., using a magnetic stirrer) for about 10 mins at room temperature or at about 4° C. Nanoparticles were measured, e.g., by dynamic light scattering (DLS), to be in the range from about 50 nm to about 2 μm.
A zeta particle size analyzer (Malvern instruments, UK) operating with a HeNe laser, and a 173° back scattering detector was used to determine the size distribution of the nanoparticles. Samples were prepared at 80 mg/mL, 50 mg/mL, and 20 mg/mL in water and measured directly by dynamic light scattering measurement (n=3 per condition). Malvern instrument software or Microsoft Excel was used to analyze the acquired data.

[6] = formed in cold saline, FIG. 4E, FIG. 5
[7] = formed in cold saline (~0.9% NaCl), solvent injection, FF ~50 mg/mL, YF ~5 mg/mL
[8] = formed in cold saline, FF ~50 mg/mL, YF ~5 mg/mL
[9] = self-assembled in cold deionized water

- particle stability [1, 6]: ≥ 5 days
Molecule: CC(C)[C@H](N)C(=O)N1CCC[C@H]1C(=O)NCC(=O)N[C@@H](Cc1ccc(O)cc1)C(=O)NCC(=O)O [Y, VPGYG] (H-VPGYG-OH)
- viability [2]: > 80%

Molecule: VPGFGVPGWG [FW]
- particle stability compared to FF and YF constructs [1]: did not show a significant increase in stability

- fraction of each dye encapsulated [3]: 20-30%
- time particles stable before disaggregation [1]: about 2 hours
- particle stability [1, 6]: at least 5 days
- time high fluorescence levels detected and maintained in vivo ([4]; Alexa 750 encapsulated, FIG. 11): at least 2 hours
- average hydrodynamic diameter [5, 7]: 600 nm
- polydispersity index (PDI) [5, 8]: 0.07
- average hydrodynamic diameter [5, 9]: ~900 nm
- polydispersity index (PDI) [5, 9]: 0.33
Molecule: CC(C)[C@H](N)C(=O)N1CCC[C@H]1C(=O)NCC(=O)N[C@@H](Cc1ccc(O)cc1)C(=O)NCC(=O)N[C@H](C(=O)N1CCC[C@H]1C(=O)NCC(=O)N[C@@H](Cc1ccccc1)C(=O)NCC(=O)O)C(C)C [YF, VPGYGVPGFG] (H-VPGYGVPGFG-OH)
- viability [2]: > 80%
- tissue distribution: lungs ([4]; 0.5-2.0 hours): greater deposition of the nanoparticles in the lungs
- tissue distribution: brain / blood-brain-barrier ([4]; fluorescence in brain): cross the blood-brain-barrier and deposit in the brain

Molecule: VPGFGVPGYG [FY]
- particle stability compared to FF and YF constructs [1]: did not show a significant increase in stability

Molecule: VPGFGVPGFG [FF]
- time particles stable before disaggregation [1]: about 2 hours
- particle stability ([1]; formed in cold saline (~0.9% NaCl), cold precipitation method): ~1 days
- average hydrodynamic diameter [5, 7]: ~191 nm
- polydispersity index (PDI) [5, 8]: 0.18
- polydispersity index (PDI) [5, 9]: 0.27

Molecule: VPGWGVPGFG [WF]
- particle stability compared to FF and YF constructs [1]: did not show a significant increase in stability

- size distribution (monodispersity) relative to other substituted peptides ([5]; DMSO stock ~380 mg/mL injected in cold saline ~2-4 °C, final ~25 mg/mL, FIG. 14): more monodisperse
Molecule: IPGYG
